Laboratory results: patent US6653306B1, “Epoxy-steroidal aldosterone antagonist and angiotensin II antagonist combination therapy” (G.D. Searle & Co., priority 1995, dated 2003)

How the values were obtained:
rabbit aortic rings = test: Assay B: In vitro vascular smooth muscle response for AII (antagonist activity, pA2); format: cell-based; details: Oryctolagus cuniculus, in vitro vascular smooth muscle response; two values per cell separated by / are separate determinations; read-out: Assay B pA2 (converted)
Experimental: Assay B: In Vitro Vascular Smooth Muscle-response for AII
The compounds of the invention were tested for antagonist activity in rabbit aortic rings. Male New Zealand white rabbits (2-2.5 kg) were sacrificed using an overdose of pentobarbital and exsanguinated via the carotid arteries. The thoracic aorta was removed, cleaned of adherent fat and connective tissue and then cut into 3-mm ring segments. The endothelium was removed from the rings by gently sliding a rolled-up piece of filter paper into the vessel lumen. The rings were then mounted in a water-jacketed tissue bath, maintained at 37° C., between moveable and fixed ends of a stainless steel wire with the moveable end attached to an FT03 Grass transducer coupled to a Model 7D Grass Polygraph for recording isometric force responses. The bath was filled with 20 ml of oxygenated (95% oxygen/5% carbon dioxide) Krebs solution of the following composition (mM): 130 NaCl, […], 15 KCl, 1.2 NaH2PO4, 1.2 MgSO4, 2.5 CaCl2, and 11.4 glucose. The preparations were equilibrated for one hour before approximately one gram of passive tension was placed on the rings. Angiotensin II concentration-response curves were then recorded (3×10^−10 to 1×10^−5 M). Each concentration of AII was allowed to elicit its maximal contraction, and then AII was washed out repeatedly for 30 minutes before rechallenging with a higher concentration of AII. Aorta rings were exposed to the test antagonist at […] for 5 minutes before challenging with AII. Adjacent segments of the same aorta ring were used for all concentration-response curves in the presence or absence of the test antagonist. The effectiveness of the test compound was expressed in terms of pA2 values and were calculated according to H. O. Schild [Br. J. Pharmacol, Chemother., 2,189-206 (1947)]. The pA2 value is the concentration of the antagonist which increases the EC50 value for AII by a factor of two. Each test antagonist was evaluated in aorta rings from two rabbits.

[1] = target: angiotensin II AT1 receptor; test: Assay A: Angiotensin II binding activity (125I-AII displacement, rat uterine membrane preparation)
Experimental: Assay A: Antiotensin II Binding Activity
Compounds of the invention were tested for ability to bind to the smooth muscle angiotensin II receptor using a rat uterine membrane preparation. […] Rat uterine membranes were prepared from fresh tissue. All procedures were carried out at 4° C. Uteri were stripped of fat and homogenized in phosphate-buffered saline at pH 7.4 containing 5 mM EDTA. The homogenate was centrifuged at 1500×g for 20 min., and the supernatant was recentrifuged at 100,000×g for 60 min. The pellet was resuspended in buffer consisting of 2 mM EDTA and 50 mM Tris-HCl (pH 7.5) to a final protein concentration of 4 mg/ml. […] The reaction was initiated by the addition of membrane protein and the mixture was incubated at 25° C. for 60 min. The incubation was terminated with ice-cold 50 mM Tris-HCl (pH 7.5) and the mixture was filtered to separate membrane-bound labelled peptide from the free ligand. The incubation tube and filter were washed with ice-cold buffer. Filters were assayed for radioactivity in a Micromedic gamma counter.
Nonspecific binding was defined as binding in the presence of 10 μM of unlabelled AII. Specific binding was calculated as total binding minus nonspecific binding. […] Binding data were analyzed by a nonlinear least-squares curve fitting program.

pressor response to AII = test: Assay C: In vivo intragastric pressor assay response for AII antagonists; parameters: species or system rat; details: dose 3 mg/kg, intragastric, or intraduodenal for examples listed; for inhibition at 3 mg/kg: Rattus norvegicus
Experimental: Assay C: In Vivo Intragastric Pressor Assay Response for AII Antagonists
Male Sprague-Dawley rats weighing 225-300 grams were anesthetized with methohexital (30 mg/kg, i.p.) and catheters were implanted into the femoral artery and vein. The catheters were tunneled subcutaneously to exit dorsally, posterior to the head and between the scapulae. The catheters were filled with heparin (1000 units/ml of saline). The rats were returned to their cage and allowed regular rat chow and water ad libitum. After full recovery from surgery (3-4 days), rats were placed in Lucite holders and the arterial line was connected to a pressure transducer. Arterial pressure was recorded on a Gould polygraph (mmHg). Angiotensin II was administered as a 30 ng/kg bolus via the venous catheter delivered in a 50 μl volume with a 0.2 ml saline flush. The pressor response in mm Hg was measured by the differer.-:e from pre-injection arterial pressure to the maximum pressure achieved. The AII injection was repeated every 10 minutes until three consecutive injections yielded responses within 4 mmHg of each other. These three responses were then averaged and represented the control response to AII. The test compound was suspended in 0.5% methylcellulose in water and was administered by gavage. The volume administered was 2 ml/kg body weight. The standard dose was 3 mg/kg. Angiotensin II bolus injections were given at 30, 45, 60, 75, 120, 150, and 180 minutes after gavage. The pressor response to AII was measured at each time point. The rats were then returned to their cage for future testing. A minimum of 3 days was allowed between tests. Percent inhibition was calculated for each time point following gavage by the following formula:
[(Control Response—Response at time point)/Control Response]×100.

CCCc1nc(CCC)n(Cc2ccc(-c3ccccc3-c3nnn[nH]3)cc2)n1 [Compound 12]
Kb (rabbit aortic rings): 2.19 nM | IC50 [1]: 6 nM

CCCCCc1nc(CCCCC)n(Cc2ccc(-c3ccccc3-c3nnn[nH]3)cc2)n1 [Compound 13]
Kb (rabbit aortic rings): 2 nM

CCCCc1nc(CCC)nn1Cc1ccc(-c2ccccc2-c2nnn[nH]2)cc1 [Compound 14]
Kb (rabbit aortic rings): 1.45 nM | IC50 [1]: 7.2 nM

CCCCc1nc(CCC)n(Cc2ccc(-c3ccccc3-c3nnn[nH]3)cc2)n1 [Compound 15]
Kb (rabbit aortic rings): 4.9 nM | IC50 [1]: 16 nM

CCCCc1nc(CCC(C)C)n(Cc2ccc(-c3ccccc3-c3nnn[nH]3)cc2)n1 [Compound 16]
Kb (rabbit aortic rings): 1.12 nM | IC50 [1]: 6.4 nM

CCCCc1nc(CCC(C)C)nn1Cc1ccc(-c2ccccc2-c2nnn[nH]2)cc1 [Compound 17]
Kb (rabbit aortic rings): 2.29 nM | IC50 [1]: 4 nM

CCCCc1ncnn1Cc1ccc(-c2ccccc2C(=O)O)cc1 [Compound 18]
Kb (rabbit aortic rings): 724 nM | IC50 [1]: 970 nM

CCCCc1ncn(Cc2ccc(-c3ccccc3C(=O)O)cc2)n1 [Compound 19]
Kb (rabbit aortic rings): 6610 nM | IC50 [1]: 12000 nM

CCCCc1nc(-c2ccccc2)n(Cc2ccc(-c3ccccc3-c3nnn[nH]3)cc2)n1 [Compound 22]
Kb (rabbit aortic rings): 251 nM | IC50 [1]: 460 nM

CCCCc1nc(C(OC)OC)nn1Cc1ccc(-c2ccccc2-c2nnn[nH]2)cc1 [Compound 24]
Kb (rabbit aortic rings): 27.5 nM | IC50 [1]: 10 nM

CCCCc1nc(CCc2ccccc2)n(Cc2ccc(-c3ccccc3-c3nnn[nH]3)cc2)n1 [Compound 25]
Kb (rabbit aortic rings): 158 nM | IC50 [1]: 480 nM

CCCCc1nc(CNC(=O)OC(C)(C)C)nn1Cc1ccc(-c2ccccc2-c2nnn[nH]2)cc1 [Compound 35]
Kb (rabbit aortic rings): 56.2 nM | IC50 [1]: 41 nM

CCCCc1nc(CN)n(Cc2ccc(-c3ccccc3-c3nnn[nH]3)cc2)n1 [Compound 36]
Kb (rabbit aortic rings): 1200 nM | IC50 [1]: 1400 nM

CCCCc1nc(CC(OCC)OCC)n(Cc2ccc(-c3ccccc3-c3nnn[nH]3)cc2)n1 [Compound 37]
Kb (rabbit aortic rings): 126 nM | IC50 [1]: 340 nM

CCCCc1nc(CC)nn1Cc1ccc(-c2ccccc2-c2nnn[nH]2)cc1 [Compound 39]
Kb (rabbit aortic rings): 13.2 nM | IC50 [1]: 10 nM

CCCCc1nc(CNC(=O)CCC(NC(C)=O)C(=O)OC(C)(C)C)nn1Cc1ccc(-c2ccccc2-c2nnn[nH]2)cc1 (stereo not shown) [Compound 41]
Kb (rabbit aortic rings): 2090 nM | IC50 [1]: 3700 nM

CCCCc1nc(CCC2CCCCC2)n(Cc2ccc(-c3ccccc3-c3nnn[nH]3)cc2)n1 [Compound 42]
Kb (rabbit aortic rings): 275 nM | IC50 [1]: 370 nM

CCCCc1nc(CCCO)nn1Cc1ccc(-c2ccccc2-c2nnn[nH]2)cc1 [Compound 45]
Kb (rabbit aortic rings): 3.89 nM | IC50 [1]: 4.4 nM

CCCCc1nc(CCCO)n(Cc2ccc(-c3ccccc3-c3nnn[nH]3)cc2)n1 [Compound 46]
Kb (rabbit aortic rings): 158 nM | IC50 [1]: 110 nM

CCCCc1nc(C(F)F)nn1Cc1ccc(-c2ccccc2-c2nnn[nH]2)cc1 [Compound 47]
Kb (rabbit aortic rings): 14.1 nM | IC50 [1]: 21 nM

CCCCc1nc(C=O)nn1Cc1ccc(-c2ccccc2-c2nnn[nH]2)cc1 [Compound 49]
Kb (rabbit aortic rings): 87.1 nM | IC50 [1]: 120 nM

CCCCc1nc(C(=O)Cc2ccccc2)nn1Cc1ccc(-c2ccccc2-c2nnn[nH]2)cc1 [Compound 50]
Kb (rabbit aortic rings): 19.5 nM | IC50 [1]: 54 nM

CCCCc1nc(C(F)(F)Cc2ccccc2)nn1Cc1ccc(-c2ccccc2-c2nnn[nH]2)cc1 [Compound 51]
Kb (rabbit aortic rings): 4.07 nM | IC50 [1]: 8.7 nM

CCCCc1nc(C(=O)O)nn1Cc1ccc(-c2ccccc2-c2nnn[nH]2)cc1 [Compound 52]
Kb (rabbit aortic rings): 7.24 nM | IC50 [1]: 100 nM

CCCCc1ncnn1Cc1ccc(-c2ccccc2-c2nnn[nH]2)cc1 [Compound 53]
Kb (rabbit aortic rings): 27.5 nM | IC50 [1]: 65 nM

CCCCc1ncn(Cc2ccc(-c3ccccc3-c3nnn[nH]3)cc2)n1 [Compound 54]
Kb (rabbit aortic rings): 955 nM | IC50 [1]: 3100 nM

CCCCc1nc(CCCC2CCCCC2)n(Cc2ccc(-c3ccccc3-c3nnn[nH]3)cc2)n1 [Compound 57]
Kb (rabbit aortic rings): 1000 nM | IC50 [1]: 2300 nM

CCCCc1nc2c(O)nnc(CCC)c2n1Cc1ccc(-c2ccccc2-c2nn[nH]n2)cc1 [Compound 114]
Kb (rabbit aortic rings): 398 nM

CCCCc1nc2c(O)nncc2n1Cc1ccc(-c2ccccc2-c2nnn[nH]2)cc1 [Compound 116]
Kb (rabbit aortic rings): 316 nM

CCCCc1nc2cnncc2n1Cc1ccc(-c2ccccc2-c2nnn[nH]2)cc1 [Compound 117]
Kb (rabbit aortic rings): 316 nM

CCCCc1cn(-c2c(OC)cccc2OC)c(=O)n1Cc1ccc(-c2ccccc2-c2nnn[nH]2)nc1 [Compound 230]
inhibition at 3 mg/kg (pressor response to AII): 25% | Assay C Duration (pressor response to AII): >180 min | IC50 [1]: 2.6 nM

CCCCc1cn(-c2c(C)cccc2Cl)c(=O)n1Cc1ccc(-c2ccccc2-c2nnn[nH]2)nc1 [Compound 231]
inhibition at 3 mg/kg (pressor response to AII): 75% | Assay C Duration (pressor response to AII): >180 min | IC50 [1]: 3.6 nM

CCCCc1cn(-c2c(C)cc(C)cc2C)c(=O)n1Cc1ccc(-c2ccccc2-c2nnn[nH]2)nc1 [Compound 232]
inhibition at 3 mg/kg (pressor response to AII): 70% | Assay C Duration (pressor response to AII): >180 min | IC50 [1]: 4.4 nM

CCCCc1cn(-c2c(CC)cccc2CC)c(=O)n1Cc1ccc(-c2ccccc2-c2nnn[nH]2)nc1 [Compound 234]
inhibition at 3 mg/kg (pressor response to AII): 20% | IC50 [1]: 5 nM

CCCCc1cn([C@H]2[C@H](C)CCC[C@@H]2C)c(=O)n1Cc1ccc(-c2ccccc2-c2nnn[nH]2)nc1 [Compound 236]
inhibition at 3 mg/kg (pressor response to AII): 70% | Assay C Duration (pressor response to AII): >180 min | IC50 [1]: 4.9 nM

CCCCc1cn(-c2cccn2CC)c(=O)n1Cc1ccc(-c2ccccc2-c2nnn[nH]2)nc1 [Compound 238]
inhibition at 3 mg/kg (pressor response to AII): 15% | Assay C Duration (pressor response to AII): >180 min | IC50 [1]: 1.7 nM

CCCCc1nc(CC(C)(C)C)nn1Cc1ccc(-c2ccccc2-c2nnn[nH]2)nc1 [Compound 249]
inhibition at 3 mg/kg (pressor response to AII): 20% | Assay C Duration (pressor response to AII): >180 min | IC50 [1]: 4.4 nM

CCCCc1nc(CC(C)(C)C)n(Cc2ccc(-c3ccccc3-c3nnn[nH]3)nc2)n1 [Compound 250]
inhibition at 3 mg/kg (pressor response to AII): 0% | IC50 [1]: 43 nM

CCCCc1nc(C(=O)N(C)C(C)(C)C)n(Cc2ccc(-c3ccccc3-c3nnn[nH]3)nc2)n1 [Compound 256]
inhibition at 3 mg/kg (pressor response to AII): 30% | Assay C Duration (pressor response to AII): >180 min | IC50 [1]: 4.1 nM

CCCCc1nc(-c2ccccc2Cl)nn1Cc1ccc(-c2ccccc2-c2nnn[nH]2)nc1 [Compound 267]
inhibition at 3 mg/kg (pressor response to AII): 25% | Assay C Duration (pressor response to AII): >180 min | IC50 [1]: 25 nM

CCCCc1nc(-c2ccccc2Cl)n(Cc2ccc(-c3ccccc3-c3nnn[nH]3)nc2)n1 [Compound 268]
inhibition at 3 mg/kg (pressor response to AII): 0% | IC50 [1]: 520 nM

CCCCc1cn(-c2ccccc2CC)c(=O)n1Cc1ccc(-c2ccccc2-c2nnn[nH]2)cc1 [Compound 271]
inhibition at 3 mg/kg (pressor response to AII): 20% | IC50 [1]: 14 nM

CCCCc1cn(-c2ccccc2C(C)C)c(=O)n1Cc1ccc(-c2ccccc2-c2nnn[nH]2)cc1 [Compound 272]
inhibition at 3 mg/kg (pressor response to AII): 70% | Assay C Duration (pressor response to AII): >180 min | IC50 [1]: 97 nM
